Reference: EP0528146A1, “N-phenylthiourea derivatives and pharmaceutical use thereof” (SANDOZ LTD., priority 1991, dated 1993)

Key:
Settings in all cases: in supplemented diet
Apo A-I = assay: Test B: Apo A-I test (rat Apo A-I ELISA on blood serum of the test animals of Test A); assay type: in vivo
Description: The Apo A-I blood serum level of the test animals of Test A is determined by rat Apo A-I Enzyme-Linked Immunosorbent Assay (ELISA) as follows:
1. Production and purification of rabbit anti-rat Apo A-I antibody:
Rat Apo A-I is purified from pooled rat blood serum by sequential ultracentrifugation and isolation of rat high-density lipoproteins (HDL). Following delipidation, Apo A-I is resolved from other HDL proteins by gel filtration chromatography. Antisera are raised in three rabbits (Pocono Rabbit Farms, Candensis, PA) by serial subcutaneous injections of purified rat Apo A-I by conventional immunization protocols. After one year of repeated bleedings, antisera are pooled, aliquoted and frozen at -20°. The crude antisera are defrosted, applied to a cyanogen bromide-activated Sepharose^R Cl-4B (beaded agarose having a 60-140 µm dry bead diameter) column to which purified human HDL had been covalently linked, the column is washed with saline, and the purified antibody is eluted with 1 M pH 3 glycine solution. The glycine is removed by dialysis utilizing Tris Buffered Saline Solution to obtain a concentrated solution of purified rabbit anti-rat Apo A-I antibody.
2. Buffers, reagents and standards:
• Sodium carbonate adsorption buffer: 2.25 g of sodium carbonate, 4.40 g of sodium bicarbonate and 0.15 g of sodium azide are dissolved in 1.4 l of ddH₂O, the pH is adjusted to 9.6 with sodium hydroxide, and the buffer is diluted with ddH₂O to a total volume of 1.5 l; • pH 8 0.5 M Tris: a solution of 60.55 g of Tris·HCl (2-amino-2-hydroxymethyl-1,3-propanediol·hydrochloride) in 1.0 l of ddH₂O is adjusted to pH 8.0 with 10 N sodium hydroxide solution; • secondary antibody buffer: 200 ml of pH 8 0.5 M Tris is added to a solution of 40 g of bovine serum albumin (BSA) Cohn Fraction V in 1.8 l of ddH₂O, 0.2 g of sodium azide is added, and 18.0 g of sodium chloride is added; • substrate buffer: 0.1 g of sodium azide is added with stirring to 105.1 g of diethanolamine and 500 ml of ddH₂O, 10 ml of 0.5 M magnesium chloride·hexahydrate solution is added, the pH is adjusted to 9.8 with 12 N hydrochloric acid, and the solution is diluted to a total volume of 1 l with ddH₂O; • 30 x ELISA wash buffer: 525.96 g of sodium chloride, 76.68 g of Tris, 6 g of sodium azide and 30 ml of Tween^R20 [polyoxyethylene (20) sorbitan monolaurate] are combined, the pH is adjusted to 7.3 with 12 N hydrochloric acid, and the solution is diluted to a total volume of 2 l with ddH₂O; • 1 x ELISA wash buffer: 1 volume of 30 x ELISA wash buffer is diluted with 29 volumes of ddH₂O; • sample diluent buffer: 886.34 ml of secondary antibody buffer and 113.66 ml of Tween^R20 are mixed well to obtain an 11.366 % v/v Tween^R20 solution; • standard diluent buffers: (A) 780 mi of secondary antibody buffer and 220 ml of Tween^R20 are mixed well to obtain a 22 % v/v Tween^R20 solution. (B) 890 ml of secondary antibody buffer and 110 ml of Tween^R20 are mixed well to obtain an 11 % v/v Tween^R20 solution; • rat serum pool A: this source of rat blood serum is used to construct the standard curve for each assay. It is calibrated against purified Apo A-I and contains 45 ± 2.7 mg Apo A-I/dl blood serum; • rat serum pool B: this is used as a low internal standard in each assay for monitoring assay drift and contains 40 mg Apo A-I/dl blood serum; • rat serum pool C: this is derived from rats treated with reference compound (gemfibrozil), is used as a high internal standard for monitoring assay drift and contains 70 mg Apo A-I/dl blood serum.
Purified rat Apo A-I from a frozen stock containing 942 µg/ml is diluted in sodium carbonate adsorption buffer to a final concentration of 3.7 µg/ml. Into each well of several Nunc polystyrene ninety-six well microtiter plates is added 100 µl of this solution. Apo A-I is allowed to adsorb onto the plates for 48 hours at 4°. […]

Total triglycerides = Total triglycerides in blood serum of the rats of Test A; assay type: in vivo, Male Sprague-Dawley rats
Description: Male Sprague-Dawley rats weighing 200-225 g are housed two per cage and fed Purina Rodent Chow Special Mix 5001-S supplemented with 0.25 % cholic acid and 0.75 % cholesterol by Purina and water ad libitum for seven or eight days. Each test substance is then administered to a group of six rats in the supplemented diet for eight or twenty-one days, the test substance constituing 0.005-0.20 % of the diet. Body weight and food consumption data are recorded prior to diet administration, prior to test substance administration and at termination. Typical doses of the test substance are 4-200 mg/kg/day.
At termination, the rats are anesthetized, sacrificed by exsanguination, the blood is collected, kept on ice while clotting, centrifuged, and the serum is separated. […] Remaining sera aliquots are refrigerated and frozen for storage.
Total triglycerides are assayed on blood serum using the Boehringer Mannheim Diagnostics Reagentset^R Triglycerides-GB kit (Cat. No. 877557) modified for microtiter plate assays as follows: The reagents are prepared according to the described method. 100 µl of Working Solution 1 and 20 µl of dilute blood serum [1:1 blood serum:saline (saline is 0.15 M sodium chloride in ddH₂O)] are added to each well of a ninety-six well microtiter plate, mixed and incubated at 20°-25° for at least 5 minutes. 100 µl of working solution 2 is added to each well, and the contents are mixed and incubated at 20°-25° for at least 5 minutes and read at 490, 492 or 500 nm. The total triglyceride content in mg/dl of blood serum is calculated by comparing the absorbance with the absorbance of known samples.
Other conventional methods may be used to assay the blood serum samples for HDL-cholesterol and total triglyceride content.

HDL-cholesterol = assay: Test A: In vivo HDL-cholesterol test; set-up: species or system Male Sprague-Dawley rats
Description: a) Test A: In vivo HDL-cholesterol test: Male Sprague-Dawley rats weighing 200-225 g are housed two per cage and fed Purina Rodent Chow Special Mix 5001-S supplemented with 0.25 % cholic acid and 0.75 % cholesterol by Purina and water ad libitum for seven or eight days. Each test substance is then administered to a group of six rats in the supplemented diet for eight or twenty-one days, the test substance constituing 0.005-0.20 % of the diet. Body weight and food consumption data are recorded prior to diet administration, prior to test substance administration and at termination. Typical doses of the test substance are 4-200 mg/kg/day. At termination, the rats are anesthetized, sacrificed by exsanguination, the blood is collected, kept on ice while clotting, centrifuged, and the serum is separated. […] Remaining sera aliquots are refrigerated and frozen for storage. HDL is isolated by micro-ultracentrifugation (mUC) or fast protein liquid chromatography (FPLC) techniques. The mUC method is as follows: 175 µl of the 1.06 g/ml density-adjusted blood serum is centrifuged at 42000 rpm in a Beckmann 42.2 Ti rotor at 20°C for 2.5 hours. 95 µl is fractionated from the top, leaving 80 µl in the bottom. FPLC fractionation is performed by Superose^R 6 (highly cross-linked beaded agarose having a dry bead diameter of 20-40 µm) gel permeation chromatography using the method of Kieft et al., J.Lipid Res. 32 (1991) 859-866 modified by the technique described in France et al., Laboratory Robotics and Automation 2 (1990) 155-173. The column buffer is Tris buffered saline solution [i.e. 0.05 M Tris (2-amino-2-hydroxymethyl-1,3-propanediol) and 0.15 M sodium chloride in distilled deionized water (ddH₂O)] containing 0.01 % sodium azide. 200 µl of serum is injected and forty 0.5 ml fractions are collected. Cholesterol is assayed on total, 42.2 Ti rotor bottoms and FPLC fractions using the Sigma Diagnostics kit for the enzymatic determination of cholesterol, Procedure No. 352, modified for use with ninety-six well microtiter plates. The reconstituted reagent (after addition of water) contains 300 U/l cholesterol oxidase, 100 U/l cholesterol esterase, 1000 U/l peroxidase (horseradish), 0.3 mmoles/l 4-aminoantipyrine and 30.0 mmoles/l p-hydroxybenzenesulfonate in a pH 6.5 buffer. This method uses cholesterol esterase to hydrolyze cholesterol esters to free cholesterol. Free cholesterol is oxidized to produce hydrogen peroxide that is used to form a quinoneimine dye. Since the reaction takes place quantitatively, the concentration of the dye, measured colorimetrically, is directly proportional to the cholesterol content of the sample. Calibrator, standard and sample may be diluted with saline if cholesterol concentrations cause readings outside the linear range. 20 µl of calibrator, standard or test sample is mixed with a 200 µl aliquot of reagent in a ninety-six well microtiter plate. Each mixture is incubated at 20°-25° for 25 minutes, and absorbance is determined by a colorimetric microtiter plate reader at 490, 492 or 500 nm. Top cholesterol (i.e. LDL-cholesterol) is determined by subtraction. Quality of micro-ultracentrifugation separation is determined by Corning universal agarose gel electrophoresis with Fat Red 7B stain. FPLC fraction Apo A-I content is assessed by the non-reducing SDS-PAGE method of France et al., J. Lipid Res. 30 (1989) 1997-2004. HDL-cholesterol is quantitated by assessing the cholesterol content of fractions containing Apo A-I and lacking immunoreactive Apo B protein. Other conventional methods may be used to assay the blood serum samples for HDL-cholesterol and total triglyceride content.

[1] = duration of treatment 8 days, dose mg/kg/day: Example 1 60, Example 2 79, Gemfibrozil 50
[2] = duration of treatment 21 days, dose mg/kg/day: Example 1 65, Example 2 73, Gemfibrozil 44

CCCNC(=S)Nc1cc(Cl)ccc1C [Example 1, N-(5-Chloro-2-methylphenyl)-N'-propylthiourea]
Apo-I level increase (%) (Apo A-I; [1]): 65% | Apo-I level increase (%) (Apo A-I; [2]): 47% | Total triglycerides level decrease (%) (Total triglycerides; [1]): 45% | Total triglycerides level decrease (%) (Total triglycerides; [2]): 70% | HDL-cholesterol level increase (%) (HDL-cholesterol; [1]): 225% | HDL-cholesterol level increase (%) (HDL-cholesterol; [2]): 256%

Cc1ccc(Cl)cc1NC(=S)NCC(C)C [Example 2, N-(5-Chloro-2-methylphenyl)-N'-2-methylpropylthiourea]
Apo-I level increase (%) (Apo A-I; [1]): 69% | Apo-I level increase (%) (Apo A-I; [2]): 102% | Total triglycerides level decrease (%) (Total triglycerides; [1]): 49% | Total triglycerides level decrease (%) (Total triglycerides; [2]): 44% | HDL-cholesterol level increase (%) (HDL-cholesterol; [1]): 267% | HDL-cholesterol level increase (%) (HDL-cholesterol; [2]): 323%

Cc1ccc(C)c(OCCCC(C)(C)C(=O)O)c1 [Gemfibrozil, reference compound]
Apo-I level increase (%) (Apo A-I; [1]): 50% | Apo-I level increase (%) (Apo A-I; [2]): 44% | Total triglycerides level decrease (%) (Total triglycerides; [1]): 35% | Total triglycerides level decrease (%) (Total triglycerides; [2]): 43% | HDL-cholesterol level increase (%) (HDL-cholesterol; [1]): 100% | HDL-cholesterol level increase (%) (HDL-cholesterol; [2]): 106%
